The source of these data is patent US20180290961A1, “METHOD AND SYSTEM FOR OBTAINING A CARBOXYLIC ACID WHICH IS PRODUCED IN A FERMENTATION PROCESS” (THYSSENKRUPP INDUSTRIAL SOLUTIONS AG, priority 2015, published 2018).

The solubility is how much of the substance goes into solution per volume. Low values mean a poorly soluble substance, high ones a readily soluble substance.

Structures are written as SMILES. Where only a bound is given, the exact number is not on record here.

A short description of one series: precipitation of fermentatively prepared carboxylic acid after acidification. It is filed as physicochemical.
Settings: not given
An excerpt: The invention is based on the observation that sparingly soluble carboxylic acids such as fumaric acid and adipic acid cannot be worked up satisfactorily using the known purification methods. […] In order to compensate for the resulting loss of product, alternative purification methods are necessary.
Consider `O=C(O)/C=C/C(=O)O` [fumaric acid], for which the “concentration above which the acid precipitates after acidification” value is reported as “about 5 g/l”.

Another series is described as follows: physchem. The note with it: 20 °C, water.
For the molecule `O=C(O)/C=C/C(=O)O` [fumaric acid], the solubility is not above 15 mg/mL. `N[C@@H](Cc1c[nH]cn1)C(=O)O` [histidine] had a solubility not above 50 mg/mL. Take `CC[C@H](C)[C@H](N)C(=O)O` [isoleucine]: the solubility is not above 50 mg/mL.

`CC(C)C[C@H](N)C(=O)O` [leucine] showed a solubility not above 50 mg/mL. `CSCC[C@H](N)C(=O)O` [methionine] returned a solubility not above 50 mg/mL. On the same count and under the same terms, the same measure for `N[C@@H](Cc1ccccc1)C(=O)O` [phenylalanine]: not above 50 mg/mL; for `O=C(O)c1ccccc1O` [salicylic acid]: not above 15 mg/mL.
